Earlier results, collected in publication PMC12150326 (The Journal of Organic Chemistry, 2025).
Where “and” joins values, the source holds several entries; their conditions need not be identical. Equal entries are not always repeated. Where two headings read alike, the source gives them in different places.

Legend:
Design in all cases: method as in NCI-60 database
NCI 60 cell lines = conditions: cited from earlier work; for _MID Log10LC50: mean graph midpoint ref NCI-60 database
K-562 = K-562 ref NCI-60 database, cited from earlier work
NCI-H23 = NCI-H23 ref NCI-60 database, cited from earlier work
COLO 205 = COLO 205 ref NCI-60 database, cited from earlier work
HCT-15 = HCT-15 ref NCI-60 database, cited from earlier work
SF-268 = SF-268 ref NCI-60 database, cited from earlier work
SF-295 = SF-295 ref NCI-60 database, cited from earlier work
UACC-62 = UACC-62 ref NCI-60 database, cited from earlier work
OVCAR-8 = OVCAR-8 ref NCI-60 database, cited from earlier work
786-0 = 786-0 ref NCI-60 database, cited from earlier work
TK-10 = TK-10 ref NCI-60 database, cited from earlier work
UO-31 = UO-31 ref NCI-60 database, cited from earlier work
DMS 273 = DMS 273 ref NCI-60 database, cited from earlier work
DLD-1 = DLD-1 ref NCI-60 database, cited from earlier work
[1] = mean graph ref NCI-60 database, listed as 757/1
[2] = mean graph ref NCI-60 database, listed as 757/9

What does the source list for `COc1cc2c(c(OC)c1OC)-c1ccc(OC)c(=O)cc1[C@@H](NC(C)=O)CC2` [Colchicine, (−)-Colchicine]?
_MID Log10LC50 (NCI 60 cell lines; listed as 757/1): -4.07 Molar and -4.08 Molar; _MID Log10LC50 (NCI 60 cell lines; listed as 757/21): -4.0 Molar and -4.12 Molar and -4.01 Molar; Delta Log10GI50 (NCI 60 cell lines; [1]): 0.39 and 0.68; Delta Log10LC50 (NCI 60 cell lines; [1]): 3.26 and 3.02; Delta Log10TGI (NCI 60 cell lines; [1]): 3.04 and 2.76; Range Log10GI50 (NCI 60 cell lines; [1]): 3.72; Range Log10LC50 (NCI 60 cell lines; [1]): 3.33 and 3.1; Range Log10TGI (NCI 60 cell lines; [1]): 3.41; Range Log10GI50 (NCI 60 cell lines; [2]): 1.41; Range Log10LC50 (NCI 60 cell lines; [2]): 4.0; Range Log10TGI (NCI 60 cell lines; mean graph ref NCI-60 database, listed as 757/21): 3.89; GI50 (K-562): 20 nM; Log10GI50 (K-562): -7.79 Molar; Log10LC50 (K-562): > -4.00 Molar; Log10TGI (K-562): > -4.00 Molar; Log10GI50 (K-562; listed as 757/1): -7.47 Molar; Log10GI50 (K-562; listed as 757/21): < -8.00 Molar and -7.84 Molar and -7.79 Molar; GI50 (NCI-H23): 30 nM; Log10GI50 (NCI-H23): -7.54 Molar; Log10LC50 (NCI-H23; listed as 757/9): -7.14 Molar; Log10LC50 (NCI-H23; listed as 757/21): > -4.00 Molar; Log10TGI (NCI-H23; listed as 757/21): > -4.00 Molar; GI50 (COLO 205): 10 nM; Log10GI50 (COLO 205): -7.83 Molar; Log10GI50 (COLO 205; listed as 757/1): -5.74 Molar; Log10GI50 (COLO 205; listed as 757/21): < -8.00 Molar and -7.83 Molar; Log10LC50 (COLO 205; listed as 757/21): -7.24 Molar; Log10TGI (COLO 205; listed as 757/21): -7.89 Molar; GI50 (HCT-15): 210 nM; Log10GI50 (HCT-15): -6.68 Molar; Log10LC50 (HCT-15; listed as 757/9): -5.60 Molar; Log10LC50 (HCT-15; listed as 757/21): > -4.00 Molar; GI50 (SF-268): 4680 nM; Log10GI50 (SF-268): -5.33 Molar; Log10LC50 (SF-268): > -4.00 Molar; Log10GI50 (SF-268; listed as 757/9): -7.12 Molar; Log10TGI (SF-268; listed as 757/9): -6.03 Molar; Log10TGI (SF-268; listed as 757/21): > -4.00 Molar; Log10GI50 (SF-295; listed as 757/1): < -8.00 Molar and -7.70 Molar; Log10LC50 (SF-295; listed as 757/1): -4.51 Molar; Log10GI50 (SF-295; listed as 757/9): -7.68 Molar and -7.69 Molar; Log10TGI (SF-295; listed as 757/9): -7.30 Molar; Log10GI50 (SF-295; listed as 757/21): -7.88 Molar and -7.77 Molar; Log10LC50 (SF-295; listed as 757/21): > -4.00 Molar; Log10TGI (SF-295; listed as 757/21): -7.39 Molar and -7.37 Molar; GI50 (UACC-62): 21 nM; Log10GI50 (UACC-62): -7.67 Molar; Log10GI50 (UACC-62; listed as 757/1): -7.19 Molar; Log10GI50 (UACC-62; listed as 757/9): -6.40 Molar; Log10LC50 (UACC-62; listed as 757/9): -6.18 Molar; Log10TGI (UACC-62; listed as 757/9): -7.72 Molar; Log10LC50 (UACC-62; listed as 757/21): > -4.00 Molar and -4.22 Molar; Log10TGI (OVCAR-8; listed as 757/1): > -4.00 Molar; Log10LC50 (OVCAR-8; listed as 757/9): -7.11 Molar; Log10LC50 (OVCAR-8; listed as 757/21): > -4.00 Molar; GI50 (786-0): 78 nM; Log10GI50 (786-0): -7.11 Molar; Log10LC50 (786-0): > -4.00 Molar; Log10TGI (786-0): > -4.00 Molar; Log10GI50 (786-0; listed as 757/9): -7.54 Molar and -7.46 Molar; Log10GI50 (786-0; listed as 757/21): -7.24 Molar and -7.34 Molar and -7.11 Molar; GI50 (TK-10): > 100000 nM; Log10GI50 (TK-10): > -4 Molar; Log10LC50 (TK-10): > -4.00 Molar; Log10TGI (TK-10): > -4.00 Molar; Log10GI50 (TK-10; listed as 757/1): > -4.00 Molar; Log10GI50 (TK-10; listed as 757/9): -7.50 Molar; Log10GI50 (TK-10; listed as 757/21): -4.66 Molar; GI50 (UO-31): 513 nM; Log10GI50 (UO-31): -6.29 Molar; Log10LC50 (UO-31): > -4.00 Molar; Log10TGI (UO-31; listed as 757/9): -6.03 Molar; Log10TGI (UO-31; listed as 757/21): -4.19 Molar and > -4.00 Molar; Log10LC50 (DMS 273): > -4.00 Molar; Log10TGI (DMS 273): > -4.00 Molar; Log10GI50 (DMS 273; listed as 757/1): -7.51 Molar; Log10GI50 (DMS 273; listed as 757/21): < -8.00 Molar and -7.87 Molar; Log10LC50 (DLD-1): > -4.00 Molar; Log10TGI (DLD-1): > -4.00 Molar; Log10GI50 (DLD-1; listed as 757/1): -7.35 Molar
